Experimental data published in patent US20230072421A1, “TARGETED RADIOPHARMACEUTICALS FOR THE DIAGNOSIS AND TREATMENT OF PROSTATE CANCER” (Bayer AS, priority 2019, published 2023).

Target: T1, PSMA-expressing LNCaP cells (Homo sapiens, UniProt Q04609)
T1 construct: PSMA-expressing LNCaP cells; endogenous in cells; host or cells: LNCaP
Experiment: Binding competition assay against 3H-PSMA-617 on LNCaP cells
Settings: LNCaP cells, 10 nM 3H-PSMA-617, 2 h at 37° C., triplicates; for remaining activity at 0.01 µM: competing non-radiolabeled compound 10 nM; for remaining activity at 0.1 µM: competing non-radiolabeled compound 100 nM
Protocol: Cells were incubated at 37° C. and 5% CO2 over night. […] After addition of the compounds in growth media the cells were swiveled slightly on a shaker mixing for 10 min followed by incubation for 2 h at 37° C., 5% C02. Following the incubation time the supernatant was removed by pipetting and cells were washed twice with ice cold PBS (total of 800 μl). Cells were lysed in 500 μl of 0.3M NaOH (PanReac AppliChem ITW Reagents) by vigorous shaking for 15 min and the cell lysated pipetted into scintillator tubes (S207-[…]® Scintillation Vials 6.5 ml #S207, Simport). In the following the wells were washed with 500 μl PBS and the washing PBS added to the corresponding samples in the sincitallator tubes. To each sample in the scintillator tubes 4 mL of Ultima Gold liquid scintillation cocktail (Sigma-Aldrich #L8286) was added and the samples let stand for at least 30 min. Thereafter radioactivity was counted in a Tri-Carb Liquid Scinzillation Analyzer (Perkin Elmer).

T1 sequence (Q04609 whole entry): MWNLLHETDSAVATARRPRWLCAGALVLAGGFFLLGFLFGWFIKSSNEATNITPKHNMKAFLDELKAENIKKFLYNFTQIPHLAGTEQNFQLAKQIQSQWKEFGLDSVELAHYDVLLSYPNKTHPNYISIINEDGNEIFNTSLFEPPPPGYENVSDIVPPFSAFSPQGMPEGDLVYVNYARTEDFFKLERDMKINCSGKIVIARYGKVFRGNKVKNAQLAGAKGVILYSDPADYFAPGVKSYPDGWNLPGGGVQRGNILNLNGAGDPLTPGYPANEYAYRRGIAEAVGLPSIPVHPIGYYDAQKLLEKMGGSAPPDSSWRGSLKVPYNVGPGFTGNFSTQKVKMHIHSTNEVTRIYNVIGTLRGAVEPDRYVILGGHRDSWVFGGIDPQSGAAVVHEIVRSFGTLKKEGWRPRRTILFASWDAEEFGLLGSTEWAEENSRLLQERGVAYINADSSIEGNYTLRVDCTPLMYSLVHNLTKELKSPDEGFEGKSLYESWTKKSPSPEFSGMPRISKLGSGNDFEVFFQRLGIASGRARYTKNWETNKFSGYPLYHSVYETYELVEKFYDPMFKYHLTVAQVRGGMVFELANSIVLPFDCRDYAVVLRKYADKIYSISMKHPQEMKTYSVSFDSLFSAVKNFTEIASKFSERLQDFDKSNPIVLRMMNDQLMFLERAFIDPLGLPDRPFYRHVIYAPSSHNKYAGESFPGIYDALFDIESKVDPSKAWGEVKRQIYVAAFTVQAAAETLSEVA

SMILES	remaining activity at 0.01 µM [%]	remaining activity at 0.1 µM [%]
NC[C@H]1CC[C@H](C(=O)N(Cc2cccc(=O)[nH]2)[C@@H](Cc2ccc3ccccc3c2)C(=O)NCCCC[C@H](NC(=O)N[C@@H](CCC(=O)O)C(=O)O)C(=O)O)CC1 [Example 21-A, (3S,10S,14S)-1-[(1r,4S)-4-(aminomethyl)cyclohexyl]-3-[(naphthalen-2-yl)methyl]-1,4,12-trioxo-2-[(6-oxo-1,6-dihydropyridin-2-yl)methyl]-2,5,11,13-tetraazahexadecane-10,14,16-tricarboxylic acid]	70	58
O=C(O)CC[C@H](NC(=O)N[C@@H](CCCCNC(=O)[C@H](Cc1ccc2ccccc2c1)NC(=O)Cc1ccc(NC(=O)CN2CCN(CC(=O)O)CCN(CC(=O)O)CCN(CC(=O)O)CC2)cc1)C(=O)O)C(=O)O [Example 23-B, (4S,11S,15S)-4-[(naphthalen-2-yl)methyl]-2,5,13-trioxo-1-(4-{2-[4,7,10-tris(carboxymethyl)-1,4,7,10-tetraazacyclododecan-1-yl]acetamido}phenyl)-3,6,12,14-tetraazaheptadecane-11,15,17-tricarboxylic acid]	66	18
O=C(O)CC[C@H](NC(=O)N[C@@H](CCCCNC(=O)[C@@H](Cc1ccc2c(c1)CCCO2)NC(=O)[C@H]1CC[C@H](CNC(=O)CN2CCN(CC(=O)O)CCN(CC(=O)O)CCN(CC(=O)O)CC2)CC1)C(=O)O)C(=O)O [Example 38-B, N^6-{3-(3,4-dihydro-2H-1-benzopyran-6-yl)-N-[(1r,4S)-4-({2-[4,7,10-tris(carboxymethyl)-1,4,7,10-tetraazacyclododecan-1-yl]acetamido}methyl)cyclohexane-1-carbonyl]-D-alanyl}-N^2-{[(1S)-1,3-dicarboxypropyl]carbamoyl}-L-lysine]	76	34
Nc1ccc(-c2ccn(CC(=O)N[C@@H](Cc3ccc4ccccc4c3)C(=O)NCCCC[C@H](NC(=O)N[C@@H](CCC(=O)O)C(=O)O)C(=O)O)n2)cc1 [Example 28-A, (4S,11S,15S)-1-[3-(4-aminophenyl)-1H-pyrazol-1-yl]-4-[(naphthalen-2-yl)methyl]-2,5,13-trioxo-3,6,12,14-tetraazaheptadecane-11,15,17-tricarboxylic acid]	107	60
O=C(O)CC[C@H](NC(=O)N[C@@H](CCCCNC(=O)[C@@H](Cc1ccc2cnccc2c1)NC(=O)[C@H]1CC[C@H](CNC(=O)CN2CCN(CC(=O)O)CCN(CC(=O)O)CCN(CC(=O)O)CC2)CC1)C(=O)O)C(=O)O [Example 44-B, (3R,10S,14S)-3-[(isoquinolin-6-yl)methyl]-1,4,12-trioxo-1-[(1r,4S)-4-({2-[4,7,10-tris(carboxymethyl)-1,4,7,10-tetraazacyclododecan-1-yl]acetamido}methyl)cyclohexyl]-2,5,11,13-tetraazahexadecane-10,14,16-tricarboxylic acid]	75	22
Cc1cc(C(=O)NCCN(CCCN(CCNC(=O)c2cc(C)n(CC(=O)O)c(=O)c2O)CCNC(=O)c2cc(C)n(CC(=O)NCc3ccc(C(=O)N[C@@H](Cc4ccc5ccccc5n4)C(=O)NCCCC[C@H](NC(=O)N[C@@H](CCC(=O)O)C(=O)O)C(=O)O)nc3)c(=O)c2O)CCNC(=O)c2cc(C)n(CC(=O)NCc3ccc(C(=O)NC(Cc4ccc5ccccc5n4)C(=O)NCCCC[C@H](NC(=O)N[C@@H](CCC(=O)O)C(=O)O)C(=O)O)nc3)c(=O)c2O)c(O)c(=O)n1CC(=O)O (stereo partly drawn) [34-C dimer, (3S,10S,14S,3'S,10'S,14'S)-1,1′-(propane-1,3-diylbis{[(2-{[1-(carboxymethyl)-3-hydroxy-6-methyl-2-oxo-1,2-dihydropyridine-4-carbonyl]amino}ethyl)azanediyl]ethane-2,1-diylcarbamoyl(3-hydroxy-6-methyl-2-oxopyridine-4,1(2H)-diyl)(1-oxoethane-2,1-diyl)azanediylmethylenepyridine-5,2-diyl})bis{1,4,12-trioxo-3-[(quinolin-2-yl)methyl]-2,5,11,13-tetraazahexadecane-10,14,16-tricarboxylic acid}]	42	7
NC[C@H]1CC[C@H](C(=O)N[C@@H](Cc2ccc(-c3ccccc3)cc2)C(=O)NCCCC[C@H](NC(=O)N[C@@H](CCC(=O)O)C(=O)O)C(=O)O)CC1 [Example 11a-A, (3S,10S,14S)-1-[(1r,4S)-4-(aminomethyl)cyclohexyl]-3-[([1,1′-biphenyl]-4-yl)methyl]-1,4,12-trioxo-2,5,11,13-tetraazahexadecane-10,14,16-tricarboxylic acid]	110	103
CNCC[C@H]1CC[C@H](C(=O)N[C@H](Cc2cc(OC)c3ccccc3c2)C(=O)NCCCC[C@H](NC(=O)N[C@@H](CCC(=O)O)C(=O)O)C(=O)O)CC1 [Example 35-A, (3R,10S,14S)-3-[(4-methoxynaphthalen-2-yl)methyl]-1-{(1r,4S)-4-[2-(methylamino)ethyl]cyclohexyl}-1,4,12-trioxo-2,5,11,13-tetraazahexadecane-10,14,16-tricarboxylic acid]	113	60
NCc1ccc(C(=O)N[C@@H](Cc2ccc3ccccc3c2)C(=O)NCCCC[C@H](NC(=O)N[C@H](CCC(=O)O)C(=O)O)C(=O)O)nc1 [Example 25-A-D, (3S,10S,14R)-1-[5-(aminomethyl)pyridin-2-yl]-3-[(naphthalen-2-yl)methyl]-1,4,12-trioxo-2,5,11,13-tetraazahexadecane-10,14,16-tricarboxylic acid]	79	67
NC[C@H]1CC[C@H](C(=O)N[C@@H](Cc2cc3ccccc3cn2)C(=O)NCCCC[C@H](NC(=O)N[C@@H](CCC(=O)O)C(=O)O)C(=O)O)CC1 [Example 36-A, N^6—{N-[(1r,4S)-4-(aminomethyl)cyclohexane-1-carbonyl]-3-(isoquinolin-3-yl)-L-alanyl}-N^2-{[(1S)-1,3-dicarboxypropyl]carbamoyl}-L-lysine]	98	73

The next lines start with the values.

remaining activity at 0.01 µM [%]	remaining activity at 0.1 µM [%]	SMILES
84	79	COc1ccc(CC(NC(=O)[C@H]2CC[C@H](CN)CC2)C(=O)NCCCC[C@H](NC(=O)N[C@@H](CCC(=O)O)C(=O)O)C(=O)O)cc1OC (stereo partly drawn) [Example 19-A, N^6—{N-[(1r,4S)-4-(aminomethyl)cyclohexane-1-carbonyl]-3-methoxy-O-methyl-L-tyrosyl}-N^2-{[(1S)-1,3-dicarboxypropyl]carbamoyl}-L-lysine]
114	40	COc1c(C[C@@H](NC(=O)[C@H]2CC[C@H](CNC(=O)CN3CCN(CC(=O)O)CCN(CC(=O)O)CCN(CC(=O)O)CC3)CC2)C(=O)NCCCC[C@H](NC(=O)N[C@@H](CCC(=O)O)C(=O)O)C(=O)O)ccc2ccccc12 [Example 33-B, (3R,10S,14S)-3-[(1-methoxynaphthalen-2-yl)methyl]-1,4,12-trioxo-1-[(1r,4S)-4-({2-[4,7,10-tris(carboxymethyl)-1,4,7,10-tetraazacyclododecan-1-yl]acetamido}methyl)cyclohexyl]-2,5,11,13-tetraazahexadecane-10,14,16-tricarboxylic acid]
65	44	NCc1ccc(C(=O)N[C@@H](Cc2ccc3ncccc3c2)C(=O)NCCCC[C@H](NC(=O)N[C@@H](CCC(=O)O)C(=O)O)C(=O)O)nc1 [Example 49-A, (3S,10S,14S)-1-[5-(aminomethyl)pyridin-2-yl]-1,4,12-trioxo-3-[(quinolin-6-yl)methyl]-2,5,11,13-tetraazahexadecane-10,14,16-tricarboxylic acid]
187	129	NC[C@H]1CC[C@H](C(=O)N[C@@H](Cc2ccc3ccccc3c2Br)C(=O)NCCCC[C@H](NC(=O)N[C@@H](CCC(=O)O)C(=O)O)C(=O)O)CC1 [Example 14-A, (3S,10S,14S)-1-[(1r,4S)-4-(aminomethyl)cyclohexyl]-3-[(1-bromonaphthalen-2-yl)methyl]-1,4,12-trioxo-2,5,11,13-tetraazahexadecane-10,14,16-tricarboxylic acid]
61	78	NC[C@H]1CC[C@H](C(=O)N[C@@H](Cc2ccc(Br)cn2)C(=O)NCCCC[C@H](NC(=O)N[C@@H](CCC(=O)O)C(=O)O)C(=O)O)CC1 [Example 31-A, N^6—{N-[(1r,4S)-4-(aminomethyl)cyclohexane-1-carbonyl]-3-(5-bromopyridin-2-yl)-L-alanyl}-N^2-{[(1S)-1,3-dicarboxypropyl]carbamoyl}-L-lysine]
84	56	NC[C@H]1CC[C@H](C(=O)N[C@@H](Cc2ccc3ccccc3n2)C(=O)NCCCC[C@H](NC(=O)N[C@@H](CCC(=O)O)C(=O)O)C(=O)O)CC1 [Example 17-A, N^6—{N-[(1r,4S)-4-(aminomethyl)cyclohexane-1-carbonyl]-3-(quinolin-2-yl)-L-alanyl}-N^2-{[(1S)-1,3-dicarboxypropyl]carbamoyl}-L-lysine]
